Key:
HepG2 = HepG2 toxicity (resazurin), effect normalised to DMSO (DMSO = 0); higher = more features changed / larger toxic effect; settings: incubation time: 70h incubation
HeLa [1] = assay: HeLa toxicity: nuclei-count effect normalised to DMSO (DMSO = 0); higher = more features changed / larger toxic effect; settings: incubation time: 24h incubation
HeLa [2] = assay: Cell Painting percent induction (share of features beyond 2 z-scores vs DMSO); higher = more features changed / larger toxic effect; extreme values may be limits of the assay; settings: incubation time: 24h incubation
human spermatozoa [3] = assay: total motile sperm, percent change vs DMSO (non-capacitating); higher = more of the measured sperm population than DMSO, for viability, fewer PI-positive (dead) cells than DMSO
human spermatozoa [4] = assay: viability fold change, 1 - (PI-positive fraction / DMSO median); higher = more of the measured sperm population than DMSO, for viability, fewer PI-positive (dead) cells than DMSO; settings: incubation time: 3h, non-capacitating
human spermatozoa [5] = assay: progressively motile sperm, percent change vs DMSO (capacitating); higher = more of the measured sperm population than DMSO, for viability, fewer PI-positive (dead) cells than DMSO; settings: incubation time: 30min incubation
human spermatozoa [6] = assay: hyperactivated motile sperm, percent change vs DMSO (capacitating); higher = more of the measured sperm population than DMSO, for viability, fewer PI-positive (dead) cells than DMSO; settings: incubation time: 30min incubation
human spermatozoa [7] = assay: change in acrosome-reacted (PNA+) sperm vs DMSO, no agonist (capacitating); higher = more of the measured sperm population than DMSO, for viability, fewer PI-positive (dead) cells than DMSO; settings: incubation time: 3h
human spermatozoa [8] = assay: acrosome-reacted (PNA+) sperm after agonist cocktail, percent change vs DMSO (capacitating); higher = more of the measured sperm population than DMSO, for viability, fewer PI-positive (dead) cells than DMSO; settings: incubation time: 3h, capacitating + agonist cocktail 1h
human spermatozoa [9] = assay: progressively motile sperm, percent change vs DMSO (non-capacitating); higher = more of the measured sperm population than DMSO, for viability, fewer PI-positive (dead) cells than DMSO; extreme values may be limits of the assay
[10] = incubation time: 10min incubation, 9.99 µM
[11] = incubation time: 10min incubation, 29.9 µM
[12] = incubation time: 3h incubation, 9.99 µM
[13] = incubation time: 3h incubation, 29.9 µM
[14] = incubation time: 6h incubation, 9.99 µM
[15] = incubation time: 6h incubation, 29.9 µM
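Throughout, for progressively motile sperm, percent change vs DMSO (non-capacitating): pooled live human sperm from at least 3 donors, tracked by automated microscopy in 0.5 s time-lapse movies, compounds at 10 and 30 µM, versus median of 16 DMSO wells per plate.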
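Throughout, for total motile sperm, percent change vs DMSO (non-capacitating): sperm pooled from at least 3 donors, tracked in 0.5 s time-lapse movies by automated microscopy after 10 min, 3 h or 6 h with compound at 10 or 30 µM.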

Row | SMILES | HepG2 toxicity (HepG2; 10 µM) | HepG2 toxicity (HepG2; 30 µM) | HeLa toxicity: nuclei-count effect normalised (HeLa [1]; 9.99 µM) | HeLa toxicity: nuclei-count effect normalised (HeLa [1]; 29.9 µM) | Cell Painting percent induction (HeLa [2]; 9.99 µM) | Cell Painting percent induction (HeLa [2]; 29.9 µM) | total motile sperm (human spermatozoa [3]; [10]) | total motile sperm (human spermatozoa [3]; [11]) | total motile sperm (human spermatozoa [3]; [12]) | total motile sperm (human spermatozoa [3]; [13]) | total motile sperm (human spermatozoa [3]; [14]) | total motile sperm (human spermatozoa [3]; [15]) | viability fold change (human spermatozoa [4]; 9.99 µM) | viability fold change (human spermatozoa [4]; 29.9 µM) | progressively motile sperm (human spermatozoa [5]; 9.99 µM) | progressively motile sperm (human spermatozoa [5]; 29.9 µM) | hyperactivated motile sperm (human spermatozoa [6]; 9.99 µM) | hyperactivated motile sperm (human spermatozoa [6]; 29.9 µM) | change in acrosome-reacted (human spermatozoa [7]; 9.99 µM) | change in acrosome-reacted (human spermatozoa [7]; 29.9 µM) | acrosome-reacted (human spermatozoa [8]; 9.99 µM) | acrosome-reacted (human spermatozoa [8]; 29.9 µM) | progressively motile sperm (human spermatozoa [9]; [10]) | progressively motile sperm (human spermatozoa [9]; [11]) | progressively motile sperm (human spermatozoa [9]; [12]) | progressively motile sperm (human spermatozoa [9]; [13]) | progressively motile sperm (human spermatozoa [9]; [14]) | progressively motile sperm (human spermatozoa [9]; [15])
1 | CCOCc1nc2c(N)nc3ccccc3c2n1CC(C)(C)O [Resiquimod] | 12.3% | -1.68% | 1.14% | 0.735% | 0% | 0% | -0.764% | -12.1% | -11.9% | -23.9% | -12.4% | -21.3% | -0.843 | -0.207 | -29.5% | -59.7% | -81.8% | -84.5% | 0.989% | 0.739% | 2.21% | -0.339% | -38.4% | -75.7% | -66.1% | -88% | -66.2% | -83.9%
2 | [O-][S+](c1ccccc1)c1ccc2nnnn2n1 (centres undefined) [Ro 106-9920] | 103% | 103% | 43.7% | 96.9% | 0.684% | 42.4% | -8.15% | -30.9% | -92.3% | -89.9% | -92.2% | -89.8% | -0.184 | -0.13 | -9.75% | -78.3% | -3.35% | -67.1% | 8.05% | 18.3% | 149% | 142% | -34.9% | -68.2% | -100% | -99.9% | -100% | -100%
3 | [O]=[V]([O-])([O-])[O-] [Sodium orthovanadate] | -3.1% | 8.27% | -6.61% | -4.07% | 0% | 0% | 2.91% | 0.876% | 8.66% | -0.441% | 8.42% | -0.812% | -0.276 | -0.0929 | 5.23% | 3.21% | 14.9% | 5.6% | 0.239% | 0.284% | 9.33% | 1.67% | 7.34% | 4.35% | 13.8% | 7.93% | 20% | 10.3%
4 | CCc1c(C)nc(SCC(=O)Nc2nc(-c3ccc(OC)cc3)cs2)[nH]c1=O [T16Ainh-A01] | -6.4% | -1.86% | 6.48% | -5.14% | 0% | 0.108% | 2.04% | 2.24% | -4.04% | 0.707% | -7.94% | -0.932% | -0.653 | -0.578 | 2.99% | 14.4% | -2.36% | -0.263% | 0.555% | 1.02% | 8.11% | 6.61% | 5.37% | 6.45% | 1.94% | 14.7% | 4.81% | 19.4%
5 | CNC(=O)c1ccccc1Nc1nc(Nc2ccc(N3CCOCC3)cc2OC)ncc1Cl [TAE226] | 92.5% | 99.8% | 45.5% | 83.4% | 1.84% | 21.1% | 0.613% | 1.31% | -18.9% | -22.2% | -16.2% | -14.9% | -0.257 | 0.581 | -5.22% | -5.06% | 137% | 34.1% | 1.37% | 1.97% | 10.7% | 31.6% | 30.1% | 34.5% | 9.37% | 3.96% | 25.7% | 23.8%
6 | CC(C)(O)c1ccn2c(-c3ccc(F)c(-c4ccc(F)cc4C#N)c3)cnc2c1F [TP 003] | 3.92% | 16.1% | 15.4% | 27.2% | 0.324% | 2.31% | 1.87% | -0.967% | -7.62% | -8.89% | -7.79% | -10.8% | -1.77 | -1.42 | 12.3% | 2.2% | 59.6% | -58% | 1.9% | 2.84% | 100% | 116% | 41.3% | 34.6% | 73.6% | 57.9% | 96% | 62.3%
7 | C=CC[C@@H]1/C=C(\C)C[C@H](C)C[C@H](OC)[C@H]2O[C@@](O)(C(=O)C(=O)N3CCCC[C@H]3C(=O)O[C@H](/C(C)=C/[C@@H]3CC[C@@H](O)[C@H](OC)C3)[C@H](C)[C@@H](O)CC1=O)[C@H](C)C[C@@H]2OC [Tacrolimus] | -3.53% | 10.6% | -1.94% | 18.1% | 0% | 0.072% | 3.53% | 3.6% | -6.77% | -2.1% | -8.35% | -8.9% | -1.97 | -2.04 | 0.476% | -0.37% | -13.3% | -55.8% | 0.533% | 0.376% | -13.9% | -24% | 5.82% | 0.659% | -17.7% | -17.9% | -13.1% | -20.1%
8 | COc1cc(C)c2c(Oc3cccc(C(F)(F)F)c3)c(OC)cc(NC(C)CCCN)c2n1 (centres undefined) [Tafenoquine] | 103% | 103% | 97.2% | 96.3% | 28.9% | 18% | -17.5% | -74.6% | -71.2% | -90.7% | -79.5% | -92% | -1.97 | -2.48 | -71.9% | -99.9% | -85.5% | -85.1% | 46.7% | 75% | 86.1% | 161% | -20.8% | -94.3% | -85.3% | -100% | -93.7% | -100%
